Biological target: T1, ΔF508-CFTR (Homo sapiens, UniProt P13569, DEL508-508)
T1 construct: Primary lung epithelial cells homozygous for the Cystic Fibrosis-causing ΔF508 mutation were differentiated for a minimum of 4 weeks; endogenous in cells; host or cells: primary lung (bronchial) epithelial cells (hBE) homozygous for ΔF508, differentiated at an air-liquid interface
Test: hBE equivalent current (Ieq) assay
Format: cell-based
Details: primary lung epithelial cells homozygous for ΔF508, 24 h treatment; for Ieq Activity: compound at its EC50 and VX-809 at 3 uM; for EC50: AUC of equivalent chloride current after forskolin plus VX-770
Experimental: Primary lung epithelial cells homozygous for the Cystic Fibrosis-causing ΔF508 mutation were differentiated for a minimum of 4 weeks in an air-liquid interface on Costar 24 well HTS filter plates prior to the equivalent current (Ieq) measurements. Cells were apically mucus-washed for 30 minutes 24 h prior to treatment with compounds. The basolateral media was removed and replaced with media containing the compound of interest diluted to its final concentration from DMSO stocks. Treated cells were incubated at 37° C. and 5% CO2 for 24 hours. At the end of the treatment period, the media was changed to the Ieq experimental solution for 30 minutes before the experiment and plates are maintained in a CO2-free incubator during this period. The plates containing the cells were then placed in pre-warmed heating blocks at 36° C.±0.5 for 15 minutes before measurements are taken. The transepithelial voltage (VT) and conductance (GT) were measured using a custom 24 channel current clamp (TECC-24) with 24 well electrode manifold. The Ieq assay measurements were made following additions with standardized time periods: • 1. The baseline VT and GT values were measured for approximately 20 minutes. • 2. Benzamil was added to block ENaC for 15 minutes. • 3. Forskolin plus VX-770 were added to maximally activate ΔF508-CFTR for 27 minutes. • 4. Bumetanide was added to inhibit the NaK2Cl cotransporter and shut-off secretion of chloride.
The activity data captured was the area under the curve (AUC) for the traces of the equivalent chloride current. The AUC was collected from the time of the forskolin/VX-770 addition until the inhibition by bumetanide addition. Correction in response to compound treatment was scored as the increase in the AUC for compound-treated samples over that of vehicle-treated samples.
(** indicates activity ≥200% of VX-809 (3 uM) with compound at its EC50 and VX-809 at 3 uM; * indicates activity 100-200% of VX-809 (3 uM) with compound at its EC50 and VX-809 at 3 uM. ##indicates activity <100% of VX-809 (3 uM) with compound at its EC50 and VX-809 at 3 uM. In Table 2, an Ieq EC50 value of “A” indicates the compound's EC50 is ≤1 μM; an Ieq EC50 value of “B” indicates the compound's EC50 is between 1 and 10 μM; an Ieq EC50 value of “C” indicates the compound's EC50 is ≥10 μM.

T1 sequence (P13569 with tags, fused parts or gaps DEL508-508): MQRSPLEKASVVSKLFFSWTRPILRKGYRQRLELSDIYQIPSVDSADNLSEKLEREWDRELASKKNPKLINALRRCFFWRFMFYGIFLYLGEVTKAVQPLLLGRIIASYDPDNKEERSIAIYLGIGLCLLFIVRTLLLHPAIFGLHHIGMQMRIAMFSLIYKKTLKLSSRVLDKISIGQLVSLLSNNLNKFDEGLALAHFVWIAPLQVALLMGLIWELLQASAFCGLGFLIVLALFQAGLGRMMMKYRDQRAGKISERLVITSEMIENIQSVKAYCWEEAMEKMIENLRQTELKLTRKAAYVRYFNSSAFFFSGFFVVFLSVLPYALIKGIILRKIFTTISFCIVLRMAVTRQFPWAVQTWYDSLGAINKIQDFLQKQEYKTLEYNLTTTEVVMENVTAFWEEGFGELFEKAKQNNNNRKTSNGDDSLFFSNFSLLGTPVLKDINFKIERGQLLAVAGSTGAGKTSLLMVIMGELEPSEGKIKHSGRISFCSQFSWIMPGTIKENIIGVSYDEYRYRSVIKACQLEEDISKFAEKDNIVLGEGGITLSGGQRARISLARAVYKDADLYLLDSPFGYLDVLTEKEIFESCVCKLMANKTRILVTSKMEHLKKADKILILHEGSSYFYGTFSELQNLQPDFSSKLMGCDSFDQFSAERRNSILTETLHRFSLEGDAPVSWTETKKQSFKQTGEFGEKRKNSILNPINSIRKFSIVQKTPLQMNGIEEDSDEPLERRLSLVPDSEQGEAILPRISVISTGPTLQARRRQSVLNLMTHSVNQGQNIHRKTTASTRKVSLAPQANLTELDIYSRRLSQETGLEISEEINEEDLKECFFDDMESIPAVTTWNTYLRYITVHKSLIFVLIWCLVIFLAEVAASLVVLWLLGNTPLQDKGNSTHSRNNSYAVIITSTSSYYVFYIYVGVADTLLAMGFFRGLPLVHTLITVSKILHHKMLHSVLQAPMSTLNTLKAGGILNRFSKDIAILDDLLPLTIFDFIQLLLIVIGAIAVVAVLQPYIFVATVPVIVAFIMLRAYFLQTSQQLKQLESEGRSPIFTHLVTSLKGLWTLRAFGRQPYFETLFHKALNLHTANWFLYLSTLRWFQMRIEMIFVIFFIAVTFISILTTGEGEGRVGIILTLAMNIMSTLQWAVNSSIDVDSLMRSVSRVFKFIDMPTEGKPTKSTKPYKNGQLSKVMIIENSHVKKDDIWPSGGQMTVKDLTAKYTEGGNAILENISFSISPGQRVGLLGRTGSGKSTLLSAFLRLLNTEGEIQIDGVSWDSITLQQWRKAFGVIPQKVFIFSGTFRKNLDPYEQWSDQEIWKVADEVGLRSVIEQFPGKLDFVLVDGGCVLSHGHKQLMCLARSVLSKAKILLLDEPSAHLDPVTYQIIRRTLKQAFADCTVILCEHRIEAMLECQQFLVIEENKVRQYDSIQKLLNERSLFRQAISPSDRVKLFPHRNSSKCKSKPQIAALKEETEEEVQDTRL

EC50	Structure (SMILES)	Ieq Activity
≤ 1 µM	O=C(NCCCC(=O)N1CCC1)c1cc(-c2ccc(F)cc2)on1 [Example 1, N-(4-(Azetidin-1-yl)-4-oxobutyl)-5-(4-fluorophenyl)isoxazole-3-carboxamide]	** (** indicates activity ≥200% of VX-809 (3 uM) with compound at its EC50 and VX-809 at 3 uM)
≤ 1 µM	O=C(N[C@H]1C[C@H](C(=O)N2CCC2)C1)c1cc(-c2ccccc2)on1 [Example 2, N-((1r,3r)-3-(Azetidine-1-carbonyl)cyclobutyl)-5-phenylisoxazole-3-carboxamide]	** (** indicates activity ≥200% of VX-809 (3 uM) with compound at its EC50 and VX-809 at 3 uM)
1 to 10 µM	O=C(NCCCC(=O)N1CCC1)c1cc(-c2ccccc2)no1 [Example 3, N-(4-(Azetidin-1-yl)-4-oxobutyl)-3-phenylisoxazole-5-carboxamide]	* (* indicates activity 100-200% of VX-809 (3 uM) with compound at its EC50 and VX-809 at 3 uM)
1 to 10 µM	O=C(N[C@H]1C[C@H](C(=O)N2CCC2)C1)c1cc(-c2ccccc2)no1 [Example 4, N-((1r,3r)-3-(Azetidine-1-carbonyl)cyclobutyl)-3-phenylisoxazole-5-carboxamide]	** (** indicates activity ≥200% of VX-809 (3 uM) with compound at its EC50 and VX-809 at 3 uM)
≤ 1 µM	O=C(N[C@H]1C[C@H](C(=O)N2CCC2)C1)c1cc(-c2ccc(F)cc2)on1 [Example 6]	* (* indicates activity 100-200% of VX-809 (3 uM) with compound at its EC50 and VX-809 at 3 uM)
≤ 1 µM	O=C(NCCCCC(=O)N1CCC1)c1cc(-c2ccccc2)on1 [Example 8]	## (##indicates activity <100% of VX-809 (3 uM) with compound at its EC50 and VX-809 at 3 uM)
≤ 1 µM	CN1CCN(C(=O)CCCNC(=O)c2cc(-c3ccc(F)cc3)on2)CC1 [Example 10]	## (##indicates activity <100% of VX-809 (3 uM) with compound at its EC50 and VX-809 at 3 uM)
≤ 1 µM	CN1CCN(C(=O)CCCCNC(=O)c2cc(-c3ccccc3)on2)CC1 [Example 11]	## (##indicates activity <100% of VX-809 (3 uM) with compound at its EC50 and VX-809 at 3 uM)
≤ 1 µM	O=C(NCCC(=O)N1CCC1)c1cc(-c2ccccc2)on1 [Example 12]	* (* indicates activity 100-200% of VX-809 (3 uM) with compound at its EC50 and VX-809 at 3 uM)
